SMILES strings stand for the structures. Read-outs that look alike come from different tables or passages of the source. Square brackets hold non-standard residues; d marks the D form. Peptide text beside a SMILES is read from it. * marks the point of attachment. Hyp = O=C(O)[C@@H]1C[C@@H](O)CN1; X8 = O=C1CC(*)C(=O)N1; X19 = CCCCCCNC(=O)C*

Test [1] deals with T1, bradykinin receptor of the B2 class (rat uterus) (Rattus norvegicus, UniProt P25023).
T1 construct: concentration effect curves to bradykinin (BK) on rat uterus in vitro; from tissue; host or cells: rat uterus
T1 sequence (P25023 1-396): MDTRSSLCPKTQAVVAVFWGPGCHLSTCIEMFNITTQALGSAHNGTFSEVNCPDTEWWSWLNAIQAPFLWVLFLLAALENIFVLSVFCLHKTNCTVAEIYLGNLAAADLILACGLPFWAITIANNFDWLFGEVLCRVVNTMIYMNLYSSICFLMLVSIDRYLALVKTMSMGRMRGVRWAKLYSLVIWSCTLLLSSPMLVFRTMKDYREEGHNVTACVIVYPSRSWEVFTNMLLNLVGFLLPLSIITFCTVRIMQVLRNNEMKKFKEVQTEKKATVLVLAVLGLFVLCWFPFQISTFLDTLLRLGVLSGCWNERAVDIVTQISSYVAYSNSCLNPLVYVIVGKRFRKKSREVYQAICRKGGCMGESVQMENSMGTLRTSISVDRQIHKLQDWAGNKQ
The experiment in a line: Rat uterus (RU) in vitro, antagonism of bradykinin. How it is done:
Thus in vitro studies were performed on standard assay systems, namely, guinea-pig ileum (GPI), rat uterus (RU) and rabbit jugular vein (RJV). […] The PA2 can be defined as the negative logarithm of the molar concentration of the antagonist in the presence of which the potency of the agonist is reduced two-fold, i.e. twice the amount of agonist is required to produce a given response in the presence of, than in the absence of, the antagonist. A high potency of antagonism is indicated by a high PA2 value, i.e., a low concentration of antagonist is effective.
The percentage recovery (% Rec) was also determined for compounds with respect to each assay.
With respect to duration of activity, it is noted that after exposure to the highest concentration of antagonist, each tissue was washed extensively and then assessed for recovery from the antagonist effect.
Potency in the rat uterus assay was assessed as described above and PA2 values determined.

For test [2], the target named is T2, bradykinin receptor of the B2 class (guinea-pig ileum) (Cavia porcellus, UniProt O70526).
T2 sequence (O70526 1-372): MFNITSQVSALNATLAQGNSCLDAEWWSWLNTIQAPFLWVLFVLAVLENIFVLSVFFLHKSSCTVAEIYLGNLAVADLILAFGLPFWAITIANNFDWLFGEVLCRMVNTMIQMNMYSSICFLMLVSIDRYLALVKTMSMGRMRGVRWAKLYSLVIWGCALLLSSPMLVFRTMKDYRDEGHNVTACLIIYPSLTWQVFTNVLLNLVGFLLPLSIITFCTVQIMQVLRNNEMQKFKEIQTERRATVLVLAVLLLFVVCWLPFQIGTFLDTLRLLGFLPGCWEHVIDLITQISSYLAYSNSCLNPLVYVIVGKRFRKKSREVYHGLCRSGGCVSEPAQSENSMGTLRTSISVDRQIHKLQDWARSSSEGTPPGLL

Where [3] appears, read: Table C, rat uterus, P.A. = Partial Agonist, read-out: pA2 MONOMER (converted).
Setting [4] is: Table C, rat uterus, read-out: pA2 DIMER (converted).

Turning to `CC(C)C[C@H](NC(=O)[C@@H](Cc1ccccc1)NC(=O)[C@H](CSSC[C@H](NC(=O)[C@H](Cc1ccccc1)NC(=O)CNC(=O)[C@@H]1C[C@@H](O)CN1C(=O)[C@@H]1CCCN1C(=O)[C@H](CCCNC(=N)N)NC(=O)[C@H](N)CCCNC(=N)N)C(=O)N[C@H](Cc1ccccc1)C(=O)N[C@@H](CC(C)C)C(=O)N[C@@H](CCCNC(=N)N)C(=O)O)NC(=O)[C@H](Cc1ccccc1)NC(=O)CNC(=O)[C@@H]1C[C@@H](O)CN1C(=O)[C@@H]1CCCN1C(=O)[C@H](CCCNC(=N)N)NC(=O)[C@H](N)CCCNC(=N)N)C(=O)N[C@@H](CCCNC(=N)N)C(=O)O` [CP-0138] (HELM PEPTIDE1{[dR].R.P.[Hyp].G.F.C.[dF].L.R}|PEPTIDE2{[dR].R.P.[Hyp].G.F.C.[dF].L.R}$PEPTIDE1,PEPTIDE2,7:R3-7:R3$$$V2.0), the “RAT UTERUS % RECOVERED” value in test [1] (Table E) came to 100%. The Kb is 39.8 nM in test [1] (Table E, read-out: RAT UTERUS pA2 (converted)) and approximately 631 nM in test [2].

The compound `CC(C)C[C@H](NC(=O)[C@@H](Cc1ccccc1)NC(=O)[C@H](CSC1CC(=O)NC1=O)NC(=O)[C@H](Cc1ccccc1)NC(=O)CNC(=O)[C@@H]1C[C@@H](O)CN1C(=O)[C@@H]1CCCN1C(=O)[C@H](CCCNC(=N)N)NC(=O)[C@H](N)CCCNC(=N)N)C(=O)N[C@@H](CCCNC(=N)N)C(=O)O` (some centres unmarked) [CP-0139] (H-[dR]RP[Hyp]GFC(X8)[dF]LR-OH) showed a Kb in test [2] of approximately 79.4 nM.

With `CC(C)C[C@H](NC(=O)[C@@H](Cc1ccccc1)NC(=O)[C@H](CO)NC(=O)[C@H](Cc1ccccc1)NC(=O)CNC(=O)[C@@H]1C[C@@H](O)CN1C(=O)[C@@H]1CCCN1C(=O)[C@H](CCCNC(=N)N)NC(=O)[C@@H](N)CS)C(=O)N[C@@H](CCCNC(=N)N)C(=O)O` [CP-0140] (HELM PEPTIDE1{C.R.P.[Hyp].G.F.S.[dF].L.R}$$$$V2.0), the “% REC MONOMER” value in test [1] (Table C, rat uterus) was 50%. Moreover, the Kb was 100 nM in test [1] (setting [3]) and approximately 316 nM in test [2].

In turn, `CC(C)C[C@H](NC(=O)[C@@H](Cc1ccccc1)NC(=O)[C@H](CO)NC(=O)[C@H](Cc1ccccc1)NC(=O)CNC(=O)[C@@H]1C[C@@H](O)CN1C(=O)[C@@H]1CCCN1C(=O)[C@H](CS)NC(=O)[C@H](N)CCCNC(=N)N)C(=O)N[C@@H](CCCNC(=N)N)C(=O)O` [CP-0141] (HELM PEPTIDE1{[dR].C.P.[Hyp].G.F.S.[dF].L.R}$$$$V2.0) had a Kb in test [2] of approximately 1000 nM.

On to `CC(C)C[C@H](NC(=O)[C@@H](Cc1ccccc1)NC(=O)[C@H](CO)NC(=O)[C@H](Cc1ccccc1)NC(=O)CNC(=O)[C@@H]1C[C@@H](O)CN1C(=O)[C@H](CS)NC(=O)[C@H](CCCNC(=N)N)NC(=O)[C@H](N)CCCNC(=N)N)C(=O)N[C@@H](CCCNC(=N)N)C(=O)O` [CP-0142] (HELM PEPTIDE1{[dR].R.C.[Hyp].G.F.S.[dF].L.R}$$$$V2.0), for which, in test [1] (Table C, rat uterus), the “% REC MONOMER” value is on record as 80%. The Kb in test [1] (setting [3]) was 398 nM; in test [2] it was approximately 2000 nM.

As for `CC(C)C[C@H](NC(=O)[C@@H](Cc1ccccc1)NC(=O)[C@H](CO)NC(=O)[C@H](Cc1ccccc1)NC(=O)CNC(=O)[C@H](CS)NC(=O)[C@@H]1CCCN1C(=O)[C@H](CCCNC(=N)N)NC(=O)[C@H](N)CCCNC(=N)N)C(=O)N[C@@H](CCCNC(=N)N)C(=O)O` [CP-0143] (HELM PEPTIDE1{[dR].R.P.C.G.F.S.[dF].L.R}$$$$V2.0), the “pA2 MONOMER” value in test [1] (Table C, rat uterus, P.A. = Partial Agonist) is “P.A”. In addition, the Kb in test [2] is approximately 316 nM.

Consider `CC(C)C[C@H](NC(=O)[C@@H](Cc1ccccc1)NC(=O)[C@H](CO)NC(=O)[C@H](CS)NC(=O)CNC(=O)[C@@H]1C[C@@H](O)CN1C(=O)[C@@H]1CCCN1C(=O)[C@H](CCCNC(=N)N)NC(=O)[C@H](N)CCCNC(=N)N)C(=O)N[C@@H](CCCNC(=N)N)C(=O)O` [CP-0144] (HELM PEPTIDE1{[dR].R.P.[Hyp].G.C.S.[dF].L.R}$$$$V2.0), for which the “% REC MONOMER” value in test [1] (Table C, rat uterus) worked out at 95%. Besides, the Kb in test [1] (setting [3]) was 63.1 nM; in test [2], approximately 501 nM.

For `CC(C)C[C@H](NC(=O)[C@@H](Cc1ccccc1)NC(=O)[C@H](CO)NC(=O)[C@H](Cc1ccccc1)NC(=O)CNC(=O)[C@@H]1C[C@@H](O)CN1C(=O)[C@@H]1CCCN1C(=O)[C@H](CCCNC(=N)N)NC(=O)[C@H](N)CS)C(=O)N[C@@H](CCCNC(=N)N)C(=O)O` [CP-0149] (HELM PEPTIDE1{[dC].R.P.[Hyp].G.F.S.[dF].L.R}$$$$V2.0), the “% REC MONOMER” value in test [1] (Table C, rat uterus) is given as 75%. Also, the figures for the Kb in test [1] (setting [3]) and in test [2] were 79.4 nM and approximately 501 nM, respectively.

For the compound `CC(C)C[C@H](NC(=O)[C@@H](Cc1ccccc1)NC(=O)[C@H](CO)NC(=O)[C@H](Cc1ccccc1)NC(=O)CNC(=O)[C@@H]1C[C@@H](O)CN1C(=O)[C@@H]1CCCN1C(=O)[C@H](CCCNC(=N)N)NC(=O)[C@@H](N)CSC1CC(=O)N(CCCCCCN2C(=O)CC(SC[C@H](N)C(=O)N[C@@H](CCCNC(=N)N)C(=O)N3CCC[C@H]3C(=O)N3C[C@H](O)C[C@H]3C(=O)NCC(=O)N[C@@H](Cc3ccccc3)C(=O)N[C@@H](CO)C(=O)N[C@H](Cc3ccccc3)C(=O)N[C@@H](CC(C)C)C(=O)N[C@@H](CCCNC(=N)N)C(=O)O)C2=O)C1=O)C(=O)N[C@@H](CCCNC(=N)N)C(=O)O` (some centres unmarked) [CP-0152] (HELM PEPTIDE1{C.R.P.[Hyp].G.F.S.[dF].L.R}|PEPTIDE2{C.R.P.[Hyp].G.F.S.[dF].L.R}|CHEM1{[O=C1CC([*:1])C(=O)N1CCCCCCN1C(=O)CC([*:2])C1=O]}$PEPTIDE1,CHEM1,1:R3-1:R1|PEPTIDE2,CHEM1,1:R3-1:R2$$$V2.0), the “% REC DIMER” value in test [1] (Table C, rat uterus) was 50%. Moreover, the Kb was 12.6 nM in test [1] (setting [4]) and approximately 316 nM in test [2].

`CC(C)C[C@H](NC(=O)[C@@H](Cc1ccccc1)NC(=O)[C@H](CO)NC(=O)[C@H](Cc1ccccc1)NC(=O)CNC(=O)[C@@H]1C[C@@H](O)CN1C(=O)[C@@H]1CCCN1C(=O)[C@H](CSC1CC(=O)N(CCCCCCN2C(=O)CC(SC[C@H](NC(=O)[C@H](N)CCCNC(=N)N)C(=O)N3CCC[C@H]3C(=O)N3C[C@H](O)C[C@H]3C(=O)NCC(=O)N[C@@H](Cc3ccccc3)C(=O)N[C@@H](CO)C(=O)N[C@H](Cc3ccccc3)C(=O)N[C@@H](CC(C)C)C(=O)N[C@@H](CCCNC(=N)N)C(=O)O)C2=O)C1=O)NC(=O)[C@H](N)CCCNC(=N)N)C(=O)N[C@@H](CCCNC(=N)N)C(=O)O` (some centres unmarked) [CP-0153] (HELM PEPTIDE1{[dR].C.P.[Hyp].G.F.S.[dF].L.R}|PEPTIDE2{[dR].C.P.[Hyp].G.F.S.[dF].L.R}|CHEM1{[O=C1CC([*:1])C(=O)N1CCCCCCN1C(=O)CC([*:2])C1=O]}$PEPTIDE1,CHEM1,2:R3-1:R1|PEPTIDE2,CHEM1,2:R3-1:R2$$$V2.0): the “% REC DIMER” value in test [1] (Table C, rat uterus) is listed as 100%. Also, the Kb in test [1] (setting [4]) is 20 nM; in test [2] it was approximately 20 nM.

For the compound `CC(C)C[C@H](NC(=O)[C@@H](Cc1ccccc1)NC(=O)[C@H](CSC1CC(=O)N(CCCCCCCCCCN2C(=O)CC(SC[C@H](NC(=O)[C@H](Cc3ccccc3)NC(=O)CNC(=O)[C@@H]3C[C@@H](O)CN3C(=O)[C@@H]3CCCN3C(=O)[C@H](CCCNC(=N)N)NC(=O)[C@H](N)CCCNC(=N)N)C(=O)N[C@H](Cc3ccccc3)C(=O)N[C@@H](CC(C)C)C(=O)N[C@@H](CCCNC(=N)N)C(=O)O)C2=O)C1=O)NC(=O)[C@H](Cc1ccccc1)NC(=O)CNC(=O)[C@@H]1C[C@@H](O)CN1C(=O)[C@@H]1CCCN1C(=O)[C@H](CCCNC(=N)N)NC(=O)[C@H](N)CCCNC(=N)N)C(=O)N[C@@H](CCCNC(=N)N)C(=O)O` (some centres unmarked) [CP-0230] (HELM PEPTIDE1{[dR].R.P.[Hyp].G.F.C.[dF].L.R}|PEPTIDE2{[dR].R.P.[Hyp].G.F.C.[dF].L.R}|CHEM1{[O=C1CC([*:1])C(=O)N1CCCCCCCCCCN1C(=O)CC([*:2])C1=O]}$PEPTIDE1,CHEM1,7:R3-1:R1|PEPTIDE2,CHEM1,7:R3-1:R2$$$V2.0), the “% REC (40 MIN)” value in test [1] (Table D, 40 min) stood at 0%. For the same compound, the Kb in test [1] (Table D, effect of linker length, read-out: pA2 (UTERUS) (converted)) was 3.98 nM.

For the compound `CCCCCCNC(=O)CSC[C@H](NC(=O)[C@H](Cc1ccccc1)NC(=O)CNC(=O)[C@@H]1C[C@@H](O)CN1C(=O)[C@@H]1CCCN1C(=O)[C@H](CCCNC(=N)N)NC(=O)[C@H](N)CCCNC(=N)N)C(=O)N[C@H](Cc1ccccc1)C(=O)N[C@@H](CC(C)C)C(=O)N[C@@H](CCCNC(=N)N)C(=O)O` [CP-0266] (H-[dR]RP[Hyp]GFC(X19)[dF]LR-OH), the Kb in test [1] (Table H, monomer modifications, read-out: RAT UTERUS pA2 (converted)) was 6.31 nM. Moreover, in test [1] (Table H, rat uterus), the “% RECOVERY” value came out at 70%.
